From PMC4077824, “Conserved Prosegment Residues Stabilize a Late-Stage Folding Transition State of Pepsin Independently of Ground States” (PLoS ONE, 2014)
Several values for one entry are separate records, joined by “and”; a condition that tells them apart may be missing. Equal values may be shown once. Where no end group is shown, it is not given here.

Key:
[1] = system: pepsin (PS-Rp, PS-TS, PS-Np complexes); assay: Φ-value analysis from PS-catalyzed folding and binding constants; set-up: species or system porcine; settings: for Φ: ratio ΔΔG^‡/ΔΔGPS(Np-Rp); for Φ / ΔΔGPS(Np-Rp) (change in equilibrium stability of PS-Np relative to PS-Rp): ± SD by propagation of errors; for ΔΔGPS(Np-Rp) (change in equilibrium stability of PS-Np relative to PS-Rp): ΔΔGPS-Np minus ΔΔGPS-Rp; for effect on PS-TS stability (in words): ΔΔGPS-TS = ΔΔG^‡ + ΔΔGPS-Rp
Description: Calculation of Φ-values from PS-catalyzed folding and binding constants
The change in stability of the folding transition state upon mutation was calculated using [drawing 3] (3) where k f, wt and k f, mut are the PS-catalyzed folding rate constants of the wild-type and mutant PS peptides. The change in equilibrium stability of PS-Np relative to PS-Rp upon mutation of the PS (ΔΔGPS(Np-Rp)) was determined as the difference between the changes in binding energies, using [drawing 4] (4) and [drawing 5] (5)
Here, ΔΔGbind refers to either ΔΔGPS-Rp, determined from K d values, or ΔΔGPS-Np, determined from K i values. The Φ-value for each mutant corresponds to eq 3 divided by eq 5. Additional details are included in the supporting information section (Text S1).
As outlined below, ∆Gbind values are used to calculate ∆∆GPS(Np-Rp), which is the change in the equilibrium free energy difference between PS-Np and PS-Rp upon mutation of the PS (for a diagram of the folding reaction, see Fig S1)
ΔΔGbind can refer to either ∆∆G^PS-Np(wt-mut) or ∆∆G^PS-Rp(wt-mut). Also, we can write ∆Gbind in terms of its components
where ∆GPS, ∆Gpepsin and ∆Gsolvent refer to the change in free energy of the PS, pepsin and the solvent upon PS binding to pepsin, respectively. Combining equations S1 and S2 gives
The contribution of each component to ∆∆Gbind will depend on the particular mutation (e.g., nature of substitution, location within folded structure, solvent accessibility). This is the general case for protein engineering analysis, in which the effects of mutations on changes in equilibrium and activation energies are the result of many individual interaction energy terms, including solvent terms, as previously explained in detail [Fersht AR, Matouschek A, Serrano L (1992) The folding of an enzyme I. Theory of protein engineering analysis of stability and pathway of protein folding. J Mol Biol 224: 771‒782]. Most importantly, there is no requirement to separate ΔΔGbind into its components in order to proceed with analysis as we are interested in the overall change in equilibrium stability of the PS-pepsin complex (∆∆GPS(Np-Rp))
This bimolecular approach to Φ-value analysis of protein folding is qualitatively identical to Φ-value analysis as it was originally applied to the study of enzyme catalysis. As outlined previously [Fersht AR], changes in the free energy of enzyme (E) binding to substrate (S) or product (P) are used to determine the change in free energy difference between E-P and E-S upon mutation, ∆∆G^EP-ES(wt-mut), where
As these are at the scale of global energy terms, equations S4 and S5 are equivalent and PS-catalyzed folding can be treated similarly as enzyme catalysis, in which the PS is the foldase and the denatured and natively folded protein are the substrate and product, respectively. However, protein folding reactions are more complicated to interpret at the level of individual interaction energy terms, which are more numerous [Fersht AR].
Changes in the binding energies between PS-Rp and PS-Np upon PS mutation can then be used to determine Φ-values with the following considerations:
1. Free PS is unstructured (see Fig S6), so Ala mutations are expected to have a negligible effect on the stability and conformation of free PS.
2. Changes in binding and folding upon mutation can be localized to the loss of interactions in the immediate vicinity of the truncation mutation (i.e., larger residue mutated to Ala), and not due to gross conformational changes of the PS or changes in the binding/folding mechanism (consider as strong evidence that all of the mutant PS’s readily catalyze folding to the native, active form).
3. Changes in PS-Rp and PS-Np binding energies upon mutation (∆∆G^PS-Np(wt-mut) and ∆∆G^PS-Rp(wt-mut)) are measured directly, while the change in the PS-TS binding energy (∆∆G^PS-TS(wt-mut)) is the sum of ∆∆G^PS-Rp(wt-mut) and ∆∆G^‡(wt-mut).
4. Φ-values are calculated using […]

refolded pepsin (Rp) [2] = target: T1, refolded pepsin (Rp) (Sus scrofa, UniProt P00791); assay: PS-catalyzed folding of Rp to Np (recovery of Np activity); format: biochemical, porcine; settings: PS with Rp, without 100 mM NaCl, timescale of 0–2 hours; data not shown, and [7]
T1 construct: Only the R13 and K36 side-chains of the PS form hydrogen bonds with the mature pepsin domain; purchased Sigma (St. Louis, MO, USA)

refolded pepsin (Rp) [3] = settings: 1H-15N TROSY NMR, absence of 100 mM NaCl; ref [51]; cited from earlier work
Description: Coarse-grain simulations have been used to understand the nature of non-native interactions in small, single-domain proteins lacking stable folding intermediates, [48], [49]. […] It would be challenging, but not impossible, to use similar coarse-grain approaches to model the folding of pepsinogen (370 residues). Using simulation to gain insigh ... || PS binding to Rp was measured in buffer without added 100 mM NaCl in order to obtain more accurate measurements of K d, owing to a larger change in signal in the absence of salt. Additionally, without added 100 mM NaCl it was possible to isolate the PS-Rp binding step from the catalyzed folding step thereby improving the determination of K d. […] However, ^1H-^15N TROSY NMR experiments indicated tha ...

[4] = system: pepsin (PS-Rp, PS-TS, PS-Np complexes); settings: ref [7]; cited from earlier work
Text: It seems likely that the PS has achieved this higher affinity for the TS via a concerted optimization of side-chain packing, hydrogen bonding and electrostatics, as evidenced by polar, hydrophobic and charged groups selectively stabilizing the TS ( Fig 3A ). Furthermore, this concerted optimization likely involves both non-native and strengthened native contacts, given the range of interactions involved. In the native fold [ ...

refolded pepsin (Rp) [5] = target: T1, refolded pepsin (Rp); settings: ref [7]; cited from earlier work
Text: (§1) Figure 1 Zymogen-derived proteins deviate from common trends in protein folding. (A) Comparison of the non- and PS-catalyzed folding of αLP [8], SGPB [5] and pepsin [7]. (B) Relation between topology and folding rate for a number of two- and three-state folding proteins (circles, data taken from, [21], [22]). The folding rate of αLP (squares), SGPB (triangles) and pepsin (stars) is accelerated to the value (hollow points) expected based on the topology, only when the PS is included. (C) Reaction scheme of pepsin PS-catalyzed folding. […] It seems likely that the PS has achieved this higher affinity for the TS via a concerted optimization of side-chain packing, hydrogen bonding and electrostatics, as evidenced by polar, hydrophobic and charged groups selectively stabilizing the TS ( Fig 3A ). Furthermore, this concerted optimization likely involves both non-native and strengthened native contacts, given the range of interactions involved. In the native fold [ ...

native pepsin (Np) = target: T2, native pepsin (Np) (Sus scrofa, UniProt P00791); settings: ref [7]; cited from earlier work
T2 construct: Only the R13 and K36 side-chains of the PS form hydrogen bonds with the mature pepsin domain; purchased Sigma (St. Louis, MO, USA)
Text: as §1

T1 sequence (P00791 60-385): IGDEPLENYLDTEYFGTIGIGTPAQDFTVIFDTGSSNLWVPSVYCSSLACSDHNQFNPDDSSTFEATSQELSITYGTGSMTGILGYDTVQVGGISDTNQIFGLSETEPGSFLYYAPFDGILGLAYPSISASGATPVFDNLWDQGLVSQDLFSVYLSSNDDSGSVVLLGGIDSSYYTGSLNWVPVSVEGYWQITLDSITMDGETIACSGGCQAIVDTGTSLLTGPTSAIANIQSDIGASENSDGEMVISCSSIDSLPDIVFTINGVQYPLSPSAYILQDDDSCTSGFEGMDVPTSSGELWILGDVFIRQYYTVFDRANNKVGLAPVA
T2 sequence (P00791 60-385): as above

| Sequence | Φ [1] | ΔΔGPS(Np-Rp) (change in equilibrium stability of PS-Np relative to PS-Rp) [1] [kcal/mol] | effect on PS-TS stability (in words) [1] | generation of protease activity without added NaCl (refolded pepsin (Rp) [2]) | folding of PS-Rp to native complex without 100 mM NaCl (refolded pepsin (Rp) [3]) | affinity for folding TS [4] | affinity for Rp (refolded pepsin (Rp) [5]) | affinity for Np (native pepsin (Np)) |
| --- | --- | --- | --- | --- | --- | --- | --- | --- |
| LVKAPLVRKKSLRQNLIKNGKLKDFLKTHKHNPASKYFPEAAAL [V4A] | −1.0±0.3 | -0.93 ± 0.18 | destabilizing to the TS | – | – | – | – | – |
| LVKVPLVRKKSLRQNLAKNGKLKDFLKTHKHNPASKYFPEAAAL [I17A] | 0 and 0.0±0.1 | 1.26 ± 0.28 | negligible effect on PS-Rp and PS-TS stability | – | – | – | – | – |
| LVKVPLVRKKSLRQNLIKNGKLKDFLKTHKHNPASKYFPEAAAL [WT] | – | – | – | no generation of protease activity was observed | does fold to the native complex | picomolar affinity | micromolar | nano- |
